We go through one molecule from patent US20230134843A1, “TREATMENT OF STEM CELL DEFICIENCY” (OSPEDALE SAN RAFFAELE S.R.L., priority 2020, published 2023).

Structures are written as SMILES. “Also recorded” adds a separate entry of the source.

One experiment relates to γH2AX. Put plainly: Western blot of γH2AX as senescence marker in corneal epithelium, disepithelization model (Example 1). The experiment is classed as in vivo, mice. Here is the method: Eight-week-old C57BL6/N (Charles River, Calco, Italy) (WT mice, n=8) and B6.Cg-Tac1tm1Bbm/J (Jackson Laboratories, Bar Harbor, Me., USA) (TAC1-KO mice, n=8) male mice were used in all experiments. Each animal was anesthetized with intraperitoneal injection of tribromoethanol (250 mg/kg) and a topical anesthetic was applied to their ocular surface prior to the surgical procedure. Disepithelization was performed based on the model previously described, using a blunt spatula to scrap the entire corneal epithelium from limbus to limbus. After wounding, eyes were treated with ophthalmic moxifloxacin 1 time/day for 1 week to […]. Fourteen days after disepithelization mice were euthanized using carbon dioxide inhalation and subsequent cervical dislocation. Corneas were collected for immunostaining and western blot analysis. […]
For Western Blot analysis, corneal epithelium was isolated after 30 minutes of EDTA treatment (Sigma-Aldrich Corp., St. Louis, Mo., USA) at 37° C. […] Bands were quantified using Image Lab™ software (Version 6.0.1, Bio-Rad Laboratories, Hercules, Calif., USA).
The expression of p70 S6 Kinase (P70S6), phospho-p70 S6 Kinase (pP70S6), and phospho-histone 2-AX (γH2AX) was evaluated by Western Blot, as previously described in section 2.9. […] Bands were quantified using Image J software (National Institutes of Health, Bethesda, Md., USA).
On the technique in general: Immunoblotting shows a protein as a band on a membrane.

A further experiment concerns the target T1, NK1R (Mus musculus, UniProt P30548).
T1 construct: NK1R is expressed by both corneal epithelial and stem cell-like cells; from tissue; host or cells: cornea / ocular surface of live C57BL6/N mice (topical dosing in vivo)
Kind of experiment: Epithelial corneal damage by corneal fluorescein staining, acute ocular GVHD mouse model. The experiment is classed as in vivo, mice. Conditions: Fosaprepitant 10 mg/mL topically six times a day (BM+T+Fosa); from day 14, p<0.05. Here is the method: 10-week-old male BALB/C and C57BL/6N mice (Charles River Laboratory, Lecco, Italy) were used for all the experiments (n=5/each group). All mice were free from ocular surface disease at baseline. The housing conditions were controlled (temperature 22° C., light from 07:00-19:00, humidity 50%-60%), and fresh food and water were freely available. The animals were monitored 3 times per week for 28 days post-transplantation for in vivo slit-lamp microscopy imaging, ocular surface score and systemic GVHD score (FIG. 11A). Carbon dioxide inhalation and subsequent cervical dislocation were applied to euthanize the animals. All the experiments were approved by the Animal Care and Use Committee of the IRCCS San Raffaele Scientific Institute, in accordance with the ARVO Statement for the Use of Animals in Ophthalmic and Vision Research.
Allogenic BMT was conducted using the C57BL/6N and BALB/c mice as transplant donors and recipients, respectively. […]
Clinical examination was performed to evaluate the ocular disease progression. […] Tear production was quantified with phenol red thread test (Zone-Quick; Lacrimedics, Eastsound, Wash., USA). […] The length of the moistened thread was measured in both eyes and the average was used as lacrimal tear volume for comparative analysis.

T1 sequence (P30548 whole entry): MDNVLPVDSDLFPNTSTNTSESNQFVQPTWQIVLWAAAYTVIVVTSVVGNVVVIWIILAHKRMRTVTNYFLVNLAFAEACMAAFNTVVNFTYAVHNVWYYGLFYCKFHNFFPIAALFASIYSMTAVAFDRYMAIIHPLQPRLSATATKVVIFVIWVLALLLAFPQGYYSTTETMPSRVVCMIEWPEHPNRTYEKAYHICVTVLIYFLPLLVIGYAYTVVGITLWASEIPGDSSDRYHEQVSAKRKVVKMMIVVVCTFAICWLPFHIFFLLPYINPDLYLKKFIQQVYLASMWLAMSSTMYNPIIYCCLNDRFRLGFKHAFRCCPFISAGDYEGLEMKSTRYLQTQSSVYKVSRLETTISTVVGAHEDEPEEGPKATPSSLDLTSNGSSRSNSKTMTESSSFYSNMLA

Consider `C[C@@H](O[C@H]1OCCN(Cc2nc(=O)n(P(=O)(O)O)[nH]2)[C@H]1c1ccc(F)cc1)c1cc(C(F)(F)F)cc(C(F)(F)F)c1` [Fosaprepitant, [3-{[(2R,3S)-2-[(1R)-1-[3,5-bis(trifluoromethyl)phenyl]ethoxy]-3-(4-fluorophenyl)morpholin-4-yl]methyl}-5-oxo-2H-1,2,4-triazol-1-yl]phosphonic acid], for which the “H2AX expression in comparison to WT (in words)” value in the experiment with γH2AX (Fosaprepitant 10 mg/mL (WT-FOSA), western blot) was “decreased”. For the same molecule, the “decreased γH2AX expression in comparison to WT” value in the experiment on γH2AX (Fosaprepitant 10 mg/mL topically four times a day for 14 days (WT-FOSA), p<0.05) is listed as 26%. Moreover, the “corneal fluorescein staining compared to BM+T mice” value on NK1R is “reduction; also recorded: significantly reduced”.
